{
  "source": "patent US20110311657A1",
  "about": "“Use of a Neuroprotective Extract and Pharmaceutical Preparation Thereof” (Universiti Putra Malaysia, priority 2009, published 2011)",
  "type_in_all_cases": "in vivo, rat",
  "key": {"[1]": {"test_system": "brain superoxide dismutase (SOD)", "experiment": "Brain superoxide dismutase (SOD) activities in normal and NO deficient rats"}, "[2]": {"test_system": "hippocampal CA3 pyramidal cells", "experiment": "Neuron viability in hippocampal CA3 of normal and nitric oxide (NO) deficient rats", "settings": "nitric oxide (NO) deficient rats, 12-week L-NAME administration; FIG. 1b", "method": "Neuroprotective activities of polyphenol-rich palm leaves extract and captopril were evaluated in normal and nitric oxide (NO) deficient rats by assessing neuron viability of three subfields in the hippocampus; CA1. CA3 and DG. […] No significant difference in viability was observed between all 3 groups of normal rats. […] CA3 and DG of the hippocampus, and that co-administration with palm leaves extract attenuated this effect more effectively than with captopril. The pronounced loss of neurons with L-NAME administration caused the impairment in acquisition, but not retention, of spatial memory in the radial-arm maze task and the Morris water maze task. The neuroprotective effect of palm leaves extract was not significant in normal adult rats where loss of neurons have not occurred."}, "[3]": {"test_system": "hippocampal CA1 pyramidal cells", "experiment": "Neuron viability in hippocampal CA1 of normal and nitric oxide (NO) deficient rats", "settings": "for viable pyramidal cells in CA1: nitric oxide (NO) deficient rats, 12-week L-NAME administration, FIG. 1a", "method": "(§1) Neuroprotective activities of polyphenol-rich palm leaves extract and captopril were evaluated in normal and nitric oxide (NO) deficient rats by assessing neuron viability of three subfields in the hippocampus; CA1. CA3 and DG. […] CA3 and DG of the hippocampus, and that co-administration with palm leaves extract attenuated this effect more effectively than with captopril. The pronounced loss of neurons with L-NAME administration caused the impairment in acquisition, but not retention, of spatial memory in the radial-arm maze task and the Morris water maze task. The neuroprotective effect of palm leaves extract was not significant in normal adult rats where loss of neurons have not occurred."}, "[4]": {"test_system": "brain malondialdehyde (MDA)", "experiment": "Brain malondialdehyde (MDA) concentrations in normal and NO deficient rats", "settings": "normal rats, FIG. 2d"}, "[5]": {"test_system": "hippocampal dentate gyrus (DG) granule cells", "experiment": "Neuron viability in hippocampal dentate gyrus of normal and nitric oxide (NO) deficient rats", "settings": "nitric oxide (NO) deficient rats, 12-week L-NAME administration; FIG. 1c", "method": "as §1, with “DG. […] The viability values of all 3 normal groups were similar.” for “DG.”"}, "brain catalase": {"test_system": "brain catalase", "experiment": "Brain catalase in normal and NO deficient rats", "settings": "normal rats, FIG. 2c"}},
  "data": [
    {"smiles": "COC(=O)[C@@H](N)CCCNC(=N)N[N+](=O)[O-]", "note": "[L-NAME]", "values": [
      {"measurement": "superoxide dismutase (SOD) activity", "setting": "[1]; L-NAME administration alone, FIG. 2a", "result": "decreased"},
      {"measurement": "CA3 pyramidal cells viability", "setting": "[2]", "result": 15, "unit": "%"},
      {"measurement": "viable pyramidal cells in CA1", "setting": "[3]", "result": 40, "unit": "%"}
    ]},
    {"smiles": "C[C@H](CS)C(=O)N1CCC[C@H]1C(=O)O", "note": "[captopril]", "values": [
      {"measurement": "increase of superoxide dismutase (SOD) activities compared with L-NAME treated animals", "setting": "[1]; nitric oxide (NO) deficient rats, FIG. 2a", "result": 51, "unit": "%"},
      {"measurement": "superoxide dismutase (SOD) activity", "setting": "[1]; normal rats", "result": "maintaining"},
      {"measurement": "CA3 pyramidal cells viability", "setting": "[2]", "result": 35, "unit": "%"},
      {"measurement": "malondialdehyde (MDA) level", "setting": "[4]", "result": "maintaining"},
      {"measurement": "viable granule cells in dentate gyrus (DG) / neurons protected from degeneration", "setting": "[5]", "result": 34, "unit": "%"},
      {"measurement": "viable pyramidal cells in CA1", "setting": "[3]", "result": "partial neuroprotection"},
      {"measurement": "viable pyramidal cell count in CA1 compared to control", "setting": "[3]; normal rats", "result": "no significant change"},
      {"measurement": "catalase activity compared to control", "setting": "brain catalase", "result": "depleted significantly"}
    ]}
  ]
}
